# Source: patent US10945972B2, “Particulate materials” (Nektar Therapeutics, priority 2002, dated 2021)
# What was measured:
# Type in all cases: physicochemical
# [1] = Inverse gas chromatography of TBS (Example 8)
# Procedure: An empty GC column was uniformly packed with the powder of interest (TBS). Pre-silanized commercially available straight glass columns of 30 cm length with a 3 mm internal diameter were used in this investigation. The silanation procedure was necessary to minimize active sites on the inner glass surfaces, which strongly interact with polar probes. Each column was packed at the detector end with a small amount of silanised glass wool, was clipped to a stand and powder was added through a glass funnel with the aid of a mechanical column packer (tapping) to improve powder flow and remove any air gaps. […] A. Hewlett Packard 6890 Series Gas Chromatograph (GC) (Hewlett Packard, Penna, USA) oven equipped with an autosampler was used to control the solvent temperature. The 6890 GC data acquisition system was used to record data from a thermal conductivity detector (TCD) and flame ionisation detector (FID) with the instrument modified for IGC by Surface Measurement Systems (SMS), Manchester, UK. The combination of detectors allowed sensitive analysis of both organic vapour elution and water (although RH was not raised above 0% for these experiments).
# The whole system was fully automated by control software (SMS iGC Controller v1.3) and the data analyzed using SMS iGC Analysis macros. Prior to analysis, each column was equilibrated at 30° C. and 0% relative humidity (RH) for 5 hours by passing dry helium gas through the column. Helium gas was also used as the carrier gas. Hydrogen and compressed air flow rates were set at 40 and 450 ml min respectively for the FID. The chromatograph injection port was maintained at 80° C., TCD detector at 150° C. and the FID detector at 150° C. Column temperature was set at 30° C. throughout analysis. Data were obtained by flowing helium gas at 10 ml min^−1 through the sinalized glass column packed with a known weight of powdered material and injecting small amounts (concentration P/Po=0.05) of a range of probe vapors with different polarities. The retention times of the probes were measured using SMS iGC Controller v1.3 software, at infinite dilution or near zero surface coverage (equivalent to 10^−4-10^−7 μl of liquid) where retention is independent of the quantity of probe injected. For each sample, two columns were prepared and analysed by employing a method based on standard settings, which allows the precise control and measurement of experimental variables. This is essential in producing meaningful results. The data were used to calculate the dispersive and non-dispersive forces acting at TBS particle surfaces using the method developed by Schultz and co-workers (J. Schultz, L. Lavielle and C. Martin. The role of the interface in carbon fibre-epoxy composites, J. Adhesion, 23, 45-60 (1987)).
# [2] = AEROSIZER time-of-flight of TBS (Example 8)
# Procedure: The TBS samples were also analysed using an AEROSIZER™ (Amherst Process Instruments, Amherst, Mass., USA), provided with pulse jet disperser, the AERODISPERSER™, to introduce the powders to the instrument. The measurement range of the AEROSIZER™ is nominally from 0.2 to 200 μm of aerodynamic diameter with the standard 750 μm diameter tapered nozzle. The micronized and SEDS™ TBS samples were analyzed for 300 seconds in triplicate using normal deagglomeration conditions, feed rate (5000 particles per second) and medium shear force (0.5 psi).
# [3] = Differential scanning calorimetry (Example 8); conditions: DSC, 10° C. min^−1
# Procedure: Prior to sample analysis, a baseline was obtained which was used as a background. […] Temperature and enthalpy were calibrated with the standard materials indium (melting point=156.6° C.) and zinc (melting point=419.5° C.). Samples (1-10) were accurately weighed into pierced, crimped aluminium pans and heated at 10° C. min^−1 over a heating range of 25-290° C. under a nitrogen purge. A chiller unit was used in conjunction with the calorimeter to attain the lower temperatures.
# [4] = Simple adhesion test in rotated glass jar (Example 3); conditions: glass jar rotated for 5 minutes
# Procedure: In this test, a small quantity of powder was weighed into a screw topped glass jar and the jar rotated for 5 minutes. The non-adhering powder was then tipped from the jar and weighed and the percentage powder adhering to the walls of the jar calculated.
# [5] = Laser diffraction HELOS/RODOS of TBS (Example 8); conditions: 2 bar
# Procedure: A small amount of TBS powder was analysed using a laser diffraction RODOS/VIBRI dispersing system (HELOS/RODOS, Sympatec GmbH, Clausthal-Zellerfeld, Germany). The instrument consisted of a laser sensor HELOS and a RODOS dry-powder air-dispersion system (Sympatec GmbH, Clausthal-Zellerfeld, Germany). Different measurement ranges of the laser sensor were provided by interchangeable objectives R1 (0.1-35 μm) and R2 (0.25-87.5 μm). The rate of powder dispersion was controlled by adjusting the pressure of the compressed air flow. A pressure of 2 bar was sufficient to achieve deagglomeration of primary particles without attrition.
# [6] = Electrostatic charge in Faraday well (Example 3)
# From the text: Surface charge was examined by placing weighed portions of the samples in a Faraday well to measure their electrostatic charge.
substance,measurement,setting,value
"salbutamol sulphate [Micronised, reference compound]",KA,[1],0.892
same,γs^D mJm^−2,"[1]; 30° C., 0% RH",58.61 mJm^−2
same,−ΔGA^SP (kJ/mol) Acetone,[1]; probe acetone,12.57 kJ/mol
same,−ΔGA^SP (kJ/mol) Chloroform,[1]; probe chloroform,1.79 kJ/mol
same,−ΔGA^SP (kJ/mol) Dioxane,[1]; probe dioxane,15.96 kJ/mol
same,−ΔGA^SP (kJ/mol) Ethyl acetate,[1]; probe ethyl acetate,16.01 kJ/mol
same,−ΔGA^SP (kJ/mol) Toluene,[1]; probe toluene,3.42 kJ/mol
same,"Aerosizer D4, 3 (μm)",[2],2.69 μm
same,Enthalpy of Fusion,[3],121.76 J/g
same,Relative Powder Adhesion (to container walls),[4],18.6
same,"Sympatec D4, 3 (μm)",[5],3.04 μm
same,Electrostatic Charge (nC/g),[6],−42.6 nC/g
salbutamol sulphate [SEDS],Relative Powder Adhesion (to container walls),[4],1.0
same,Electrostatic Charge (nC/g),[6],−0.2 nC/g
salbutamol sulphate [Unprocessed],Relative Powder Adhesion (to container walls),[4],8.6
same,Electrostatic Charge (nC/g),[6],−23.1 nC/g
